{"source": "patent US12338266B2", "about": "(GENETIC S.P.A., priority 2019, dated 2025)", "type_in_all_cases": "in vivo, Balb/c mice", "key": {"[1]": {"system": "mice with OVA-induced allergic asthma", "assay": "Salbutamol-induced relaxation of carbachol pre-contracted bronchi of OVA-sensitized mice (Protocol-1)", "method": "(§1) Balb/c mice (8-9 weeks old, Charles River, Calco, Italy) were housed in the animal care facility at the Department of Pharmacy of the University of Naples. […] All animals were allowed to acclimate for four days prior to experiments and were subjected to 12 h light-12 h dark schedule. Each mouse was assigned an identity number and randomtzed to different groups so that all experiments were carried out in a blinded manner. The experimental procedures were approved by the Italian Ministry according to International and National law and policies (EU Directive 2010/63/EU and Italian DL 26/2014 for animal experiments, ARRIVE guidelines and the Basel declaration including the 3R concept). Animal studies are reported in compliance with the ARRIVE guidelines. Balb/c mice is the most widely mouse strain used to study asthma-like features in vivo and to investigate the undedying molecular and cellular mechanisms of allergen sensitization. Mice were treated subcutaneously (s.c.) with 0.4 mL (100 μg) of ovalbumin (OVA) complexed with alum (13 mg mL^−1) (OVA group) at day 0 and 7. Chicken egg-white ovalbumin (OVA: grade V. cat. A5503, Sigma Chemical Co., St. Louis, MO) was dissolved in sterile phosphate buffered saline (PBS) solution (250 μg/1 ml) and Al(OH)3 was added (at 13 mg/ml). This mix was used to induce the allergic sensitization of the animals by subcutaneous injection. OVA was dissolved at 3% in sterile PBS solution and this solution was nebulized (as the immunological challenges). At day 21 mice were exposed to OVA challenge for three days and then sacrificed. […] A group of animals was treated s.c. with saline (vehicle group). […] Animals were killed at selected time points by overdose of enflurane and bronchi and blood collected. Main bronchi were rapidly dissected and cleaned from fat and connective tissue. Rings of 1-2 mm length were cut and mounted in 2.5 mL isolated organ baths containing Krebs solution, at 37° C., oxygenated (95% O2 and 5% CO2), and connected to an isometric force transducer (type 7000. Ugo Basile. Cornerio, Italy) associated to a Powerlab 800 (AD Instruments). Rings were initially stretched until a resting tension of 0.5 g and allowed to equilibrate for at least 30 min. In each experiment bronchial rings were previously challenged with acetylcholine (10^−6 M) until a reproducible response curve was obtained. Subsequently, after tissue washing, a cumulative concentration response curve to carbachol (10^−9-3×10^−6 M) was performed. Results were expressed as dyne/mg tissue. In another set of experiments on bronchi pre-contracted with carbachol and salbutamol-induced relaxation was assessed."}, "[2]": {"system": "mice with OVA-induced allergic asthma", "assay": "Total and differential leukocyte counts in BAL fluid (Protocol-2)", "method": "Male Balb/c SPF mice (26*2 g, 6 week-old) were purchased from the animal house facilities at the Faculty of Medicine (University of Sāo Paulo, Brazil). They were group-housed in a temperature-controlled room at 22° C. with a 12/12-hour light/dark cycle and allowed free access to food and water. The study is in agreement with the Ethical Principles for Animal Research established by the Brazilian College for Animal Experimentation (COBEA). According to the internal laboratory rules, euthanasia will be performed if severe distress related to the test agents developed during the experiment. Mice were sensitized with two subcutaneous injections of 0.2 ml of OVA/Al(OH)3, with an interval of 7 days (Sham animals received the Al(OH)3 suspension in PBS with no OVA). Chicken egg-white ovalbumin (OVA; grade V, cat. A5503, Sigma Chemical Co., St. Louis, Mo.) was dissolved in sterile phosphate buffered saline (PBS) solution (50 μg/ml) and Al(OH)3 was added (at 8 mg/ml). This mix was used to induce the allergic sensitization of the animals by subcutaneous injection. OVA was dissolved at 1% in sterile PBS solution and this solution was nebulized (as the immunological challenges). Seven days after the second sensitization (i.e., 3rd week), the animals were nebulized twice a week with the 1% OVA solution (Sham and untreated OVA groups were nebulized with PBS) during 20 minutes for the next 4 weeks. Thirty minutes before the challenges (OVA nebulization) and daily during the next 4 weeks, mice were intra-nasally treated (10 μl/animal as 5 μl/nostril) with the respective compounds/vehicle. […] Animals were killed at selected time points by overdose of enflurane and BAL and blood collected.\nAfter Penh evaluation, the mice were anesthetized with inhaled isofluorane (5% v/v in O2) and blood samples were collected from the descending abdominal aorta. The mice were then euthanized by exsanguination and bronchoalveolar lavage (BAL) was performed by exposing and cannulating the trachea with a polyethylene tube (1 mm outer diameter) connected to a syringe. The lungs were washed by flushing 300 μL of heparin-containing PBS solution (20 UI/mL). The retrieved BAL lavage aliquots were obtained and the same procedure was repeated four additional times. The samples were centrifuged (1000 g for 10 min) and the cell pellet was resuspended in 200 μL of PBS solution, Total cell counts were determined using a Neubauer chamber, and differential counting was carried out in cytospin (Fanem Mod 2400; Sāo Paulo, Brazil) preparations stained with May-Grünwald dye. Leukocytes were classified based on morphological criteria."}, "[3]": {"system": "mice with OVA-induced allergic asthma", "assay": "Bronchial reactivity to carbachol, isolated bronchi of OVA-sensitized mice (Protocol-1)", "method": "as §1, with “Rings of 1-2 mm length were cut and mounted in 2.5 mL isolated organ baths containing Krebs solution, at 37° C., oxygenated (95% O2 and 5% CO2), and connected to an isometric force transducer (type 7000. Ugo Basile. Cornerio, Italy) associated to a Powerlab 800 (AD Instruments). Rings were initially stretched until a resting tension of 0.5 g and allowed to equilibrate for at least 30 min. In each experiment bronchial rings were previously challenged with acetylcholine (10^−6 M) until a reproducible response curve was obtained. Subsequently, after tissue washing, a cumulative concentration response curve to carbachol (10^−9-3×10^−6 M) was performed.” left out"}}, "note": "“Also recorded” adds a separate entry of the source.", "data": [{"smiles": "CC(C)(O)c1ccccc1CCC(SCC1(CC(=O)OCC(=O)[C@@]23O[C@H](C4CCCCC4)O[C@@H]2C[C@H]2[C@@H]4CCC5=CC(=O)C=C[C@]5(C)[C@H]4[C@@H](O)C[C@@]23C)CC1)c1cccc(/C=C/c2ccc3ccc(Cl)cc3n2)c1", "note": "(stereo partly drawn) [montelukast desisobutyryl-ciclesonide ester]", "values": [{"measurement": "salbutamol-induced relaxation compared to vehicle", "setting": "[1]; 2 mg/Kg i.p.", "value": "further increase in salbutamol-induced relaxation when compared to vehicle"}, {"measurement": "salbutamol-induced bronchial relaxation", "setting": "[1]; 0.5, 1 and 2 mg/Kg i.p., FIG. 5B", "value": "rescued salbutamol ability to inducing bronchial relaxation at all doses tested"}, {"measurement": "preserving salbutamol induced bronchial relaxation, compared to ciclesonide", "setting": "[1]; ester 2 mg/kg i.p. vs ciclesonide 1 mg/kg", "value": "significant major efficacy in preserving salbutamol induced bronchial relaxation"}, {"measurement": "preserving salbutamol relaxation, ester versus montelukast", "setting": "[1]; ester 2 mg/kg i.p. vs montelukast 1 mg/kg, FIG. 7B", "value": "significantly enhanced"}, {"measurement": "inhibition of eosinophil recruitment to the lungs at the lowest dose tested", "setting": "[2]; 10 nmol/animal/day, comparable with ciclesonide alone at 100 nmol/animal/day", "value": "significant effects"}, {"measurement": "BAL eosinophils (OVA-induced increase)", "setting": "[2]; 10, 30 and 100 nmol/animal/day intranasal, 4 weeks, FIG. 10", "value": "did not reach statistical significance; also recorded: lower number of eosinophils"}, {"measurement": "control of bronchial hyper-reactivity (response to carbachol)", "setting": "[3]; 0.5, 1 and 2 mg/Kg i.p. 1 hour before OVA challenge, FIG. 5A", "value": "good control of bronchial hyper-reactivity at all doses tested"}, {"measurement": "control of hyper-reactivity to carbachol, compared to ciclesonide", "setting": "[3]; ester 2 mg/kg i.p. vs ciclesonide 1 mg/kg, FIG. 6A", "value": "major efficacy in the control of the development of hyper-reactivity to carbachol"}, {"measurement": "effect on bronchial hyper-responsiveness, ester versus montelukast", "setting": "[3]; ester 2 mg/kg i.p. vs montelukast 1 mg/kg, FIG. 7A", "value": "comparable"}]}]}
